Test results as given in patent US20160103138A1, “METHODS FOR ANALYZING ELASTIC FIBER INJURY MARKERS AND DIAGNOSIS OF DISEASES ASSOCIATED WITH ELASTIC FIBER INJURY” (priority 2013, published 2016).

Legend:
[1] = 6N HCl (Ma, S. et al., 2011); cited from earlier work
[2] = Stability of DES-d4 (IS) in 6N HCl at 110° C., recovery by LC-MS/MS; assay type: physicochemical; conditions: heated at 110° C. for 24, 48, and 72 hours
Description: Step 1: Acid hydrolysis: DES-d4 IS (5 ng) was added to the analytical samples (0.5 ml) in a glass vial with equal volumes of concentrated HCl (37%). Air in the vial was displaced with nitrogen, and was heated at 110° C. for 24 hours. The hydrolyzed sample was filtered and evaporated to dryness.
Step 3: LC-MS/MS analysis: A TSQ Discovery electrospray tandem mass spectrometer (Thermo Fisher Scientific) was used for LC-MS/MS analysis. HPLC conditions used were a 2 mm×150 mm dC18 (3 μm) column (Waters, Mass.) and the mobile phase A (7 mM HFBA/5 mM NH4Ac in water) and B (7 mM HFBA/5 mM NH4Ac in 80% acetonitrile) were programmed linearly from 100% A to 82% A in 12 m. Quantitation was performed by selected reaction monitoring (SRM) of the transitions of both DES and IDS (m/z 526 to m/z 481+m/z 397) and the IS (m/z 530 to m/z 485), with collision energy set at 33 V for both transitions, collision gas pressure was 1.5 mTorr, tube lens at 132 V, with sheath gas pressure set at 45 and auxiliary gas pressure at 6 units and ion spray voltage at 3.8 kV. The scan time was set at 1.00 ms and both quadrupoles (Q1 and Q3) were at 0.7 Da FWHM.
The stability of DES-d4 and reliability during use as the IS for the isotope dilution LC-MS/MS analysis of DES and IDS were examined. […]

[3] = tested on: desmosine and isodesmosine (DI) in plasma (elastin degradation); assay: Effect of alpha-1 antitrypsin augmentation therapy on DI levels in plasma of AATD patients; assay type: in vivo, human; conditions: for change in DI in plasma from baseline: 11 patients, intravenous replacement
Description: (§1) There were 4 sources of body fluid samples analyzed: 1) plasma samples from 47 patients receiving alpha-1 antitrypsin protein from human blood sources, commercially available, compared with 50 AATD patients not on AAT augmentation and 50 normal subjects; 2) 11 patients with homozygous severe AATD who provided plasma samples before the start of IV therapy and then 12 and 24 weeks later; 3) 10 patients with homozygous AATD receiving IV replacement provided BALF at 12 weeks (the dose administered was 60 mg/kg body weight each week in the above patient groups); and 4) patients received a recombinantly produced AAT which was administered as an aerosol for 8 weeks. (Spencer et al., 2005) (the administered dose was 250 mg of aerosolized transgenic AAT each day). Eight patients provided BALF, 12 patients provided plasma samples, and 5 patients provided urine samples at baseline and after 8 weeks of aerosol therapy.
(§2) The following 3 methods were used to define the alpha-1 genomes: 1) genotype by allelic discrimination using TaqMan (S&Z alleles), ABI 7500 Fast Real-time PCR System; 2) AAT Level by Immunogenic assay, Dade Behring Nephelometer BN II and 3) phenotyping by isoelectric focusing, Pharmacia Biotech Multiphore II. The method of analysis for desmosine and isodesmosine (DI) in plasma, BALF and urine is as described. (Ma et al., 2011) The content of DI in BALF was calculated as the concentration of DI per ml of BALF using urea as a marker of dilution. (Rennard et al., 1986).
(§3) High performance liquid chromatography and tandem mass spectrometry as described (Ma et al., 2011) were used.
(§4) The T-test was used to compare the effects of augmentation therapy on the large patient cohorts. The paired T-test was used to compare the changes before and after therapy in individuals. The linear regression was used to determine the relationships of age to levels of DI.

[4] = tested on: desmosine and isodesmosine (DI) in epithelial lining fluid obtained by BALF (elastin degradation); assay: Effect of alpha-1 antitrypsin augmentation therapy on DI levels in BALF of AATD patients; assay type: in vivo, human
Description: as §1
as §2, with “The method of analysis for desmosine and isodesmosine (DI) in plasma, BALF and urine is as described.” left out, “(Rennard et al., 1986).” left out

[5] = tested on: urinary desmosine; conditions: cited from earlier work
[6] = tested on: leukotriene B-5, interleukin-8 and neutrophil elastase in sputum; conditions: after weeks of supplementation therapy with I.V. AAT (Stockley et al., 2002); cited from earlier work
[7] = tested on: urinary desmosine and isodesmosine (DI); assay: Effect of aerosol alpha-1 antitrypsin augmentation therapy on urinary DI (free and total); assay type: in vivo, human; conditions: before vs after aerosol augmentation therapy
Description: as §1, §2, §3, §4

N[C@@H](CCCc1c(CC[C@H](N)C(=O)O)c[n+](CCCC[C@H](N)C(=O)O)cc1CC[C@H](N)C(=O)O)C(=O)[O-] [DES, Desmosine]
stability during acid hydrolysis (in words) [1]: stable

[2H]C([2H])(C[C@H](N)C(=O)O)C([2H])([2H])c1c(CC[C@H](N)C(=O)O)c[n+](CCCC[C@H](N)C(=O)O)cc1CC[C@H](N)C(=O)O [DES-d4]
stability of DES-d4 under acid hydrolysis (in words) [2]: stable with nearly complete recovery

NC(CCCC[n+]1cc(CCC(N)C(=O)O)cc(CCC(N)C(=O)O)c1CCCC(N)C(=O)O)C(=O)O (stereo not drawn) [IDS, isodesmosine]
stability during acid hydrolysis (in words) [1]: stable

AAT: alpha-1 antitrypsin protein from human blood sources, commercially available, given intravenously as augmentation therapy
change in DI in plasma from baseline ([3]; 12 weeks of therapy): −13.9% | change in DI in plasma from baseline ([3]; 24 weeks of therapy): −20.3% | mean level of DI in plasma ([3]; AATD patients receiving augmentation therapy (IV, 60 mg/kg each week), n=50, no augmentation 0.36, normal 0.22): 0.25 ng/mL | plasma levels of DI, mean±SD ([3]; FIG. 7, augmentation group, n=50, no augmentation 0.36±0.01, normal 0.22±0.04): 0.25±0.01 | overall average change of DI in BALF ([4]; 10 patients, before vs 12 weeks after IV augmentation therapy, p=0.0273): −37% | drop of mean post-treatment urinary desmosine from pre-treatment levels ([5]; two AATD patients, monthly infusions of 260 mg/kg, followed 18 months (Stone et al., 1995)): exceeded 35% | levels of leukotriene B-5, interleukin-8 and neutrophil elastase in sputum [6]: reduced levels

Prolastin: AAT supplementation product (Bayer Company)
urinary desmosine excretion during supplementation vs run in ([5]; 12 AATD subjects, weekly 60 mg/kg for 4 weeks (Gottlieb et al., 2000)): unchanged

aerosolized transgenic AAT: recombinantly produced AAT which was administered as an aerosol for 8 weeks
mean decrease of DI in plasma ([3]; 12 patients, before vs after 8 weeks aerosol augmentation therapy (250 mg each day), not statistically significant (p=0.1675)): 6.5% | mean increase in DI in plasma ([3]; the 3 of 12 patients with increase, aerosol augmentation therapy, not statistically significant): 4.3% | average decrease of DI in plasma ([3]; the 9 of 12 patients with reduction, aerosol augmentation therapy, p=0.0142): 12.1% | mean reduction of DI levels in BALF ([4]; 8 patients, AAT by aerosol administration, 8 weeks, p=0.0078): −58.5% | reduction in the free component of DI excretion in urine ([7]; 4 of the 5 subjects): 0.1-13.0% | average reduction of percent of free DI over total DI excretion in urine ([7]; 5 subjects, p=0.0625): 21.6% | increase in excretion of free DI in urine ([7]; one of the 5 subjects): 75.3%
